Measured values reported in patent publication US4642379A, “Intermediates for anticonvulsant agents” (Eli Lilly and Company, priority 1985, dated 1987).

System: not given
Assay: not given
Conditions: man; cited from earlier work

Question: For `O=C1NC(=O)C(c2ccccc2)(c2ccccc2)N1` [phenytoin], which “plasma level at which ataxia is obvious” value is on record?
Answer: 30000 ng/mL

Question: And the “plasma level at which lethargy is apparent” value?
Answer: about 40 mcg/ml

Question: What about the “plasma level at which nystagmus is seen” value of the same compound?
Answer: around 20 mcg/ml

Question: What about the “plasma level at which seizures are controlled” value of the same compound?
Answer: ≥ 10 µg/mL

System: electroshock induced convulsion
Assay: electroshock induced convulsion inhibition assay (E.S.)
Assay type: in vivo, mice (Cox standard strain albino male)
Conditions: Mus musculus; oral dose (gavage), mice; 0.1 second, 50 milliampere electroshock through corneal electrodes; at time of optimal response
Description: In the elctroshock induced convulsion inhibition assay (E.S.), the compound to be tested was suspended in acacia and administered by gavage to each of ten Cox standard strain albino male mice (18-24 g) at the dose level being investigated. […] The animals were examined and evaluated immediately after the electroshock for the occurrence of clonic, flexor tonic, or extensor tonic convulsions, or death and the ED50 was determined for each compound as the dose which inhibited the occurrence of extensor tonic convulsions in one half of the animals immediately after the electroshock.

Question: Which ED50 does the source give for `CC(=O)Nc1ccc(C(=O)Nc2c(C)cccc2C)cc1` [Example 1, 4-(Acetylamino)-N-(2,6-dimethylphenyl)benzamide] here?
Answer: 3.6 mg/kg

Question: Which ED50 does the source give for `CCC(=O)Nc1ccc(C(=O)Nc2c(C)cccc2C)cc1` [Example 2, N-(2,6-dimethylphenyl)-4-[(1-oxopropyl)amino]benzamide] here?
Answer: 10.5 mg/kg

Question: Which ED50 does the source give for `Cc1cccc(C)c1NC(=O)c1ccc(NC(=O)C(C)C)cc1` [Example 3, N-(2,6-dimethylphenyl)-4-[(2-methyl-1-oxopropyl)amino]benzamide] here?
Answer: 8.2 mg/kg

Question: With `CC(=O)Nc1ccc(C(=O)N[C@@H](C)c2ccccc2)cc1` [Example 4, (S)-4-(acetylamino)-N-(1-phenylethyl)benzamide] as the compound, how does the ED50 read?
Answer: 22.2 mg/kg

Question: For `CC(=O)Nc1ccc(C(=O)NC(C)c2ccccc2)cc1` (stereo not drawn) [Example 6, 4-(Acetylamino)-N-(1-phenylethyl)benzamide], which ED50 is on record?
Answer: 54 mg/kg

Question: For `CC(=O)Nc1ccc(C(=O)Nc2c(C)cccc2C)cc1C` [Example 11, 4-(Acetylamino)-N-(2,6-dimethylphenyl)-3-methylbenzamide], which ED50 is on record?
Answer: 4.5 mg/kg

Question: With `Cc1cccc(C)c1NC(=O)c1ccc(NC(=O)CN(C)C)cc1` [Example 12, 4-([(Dimethylamino)acetyl]amino)-N-(2,6-dimethylphenyl)benzamide] as the compound, how does the ED50 read?
Answer: 8 mg/kg

Question: For `CNCC(=O)Nc1ccc(C(=O)Nc2c(C)cccc2C)cc1.O=C(O)C(=O)O` [Example 13, N-(2,6-dimethylphenyl)-4-([(methylamino)acetyl]amino)benzamide ethanedioate], which ED50 is on record?
Answer: 6.3 mg/kg

Question: With `CCN(CC)CC(=O)Nc1ccc(C(=O)Nc2c(C)cccc2C)cc1.O=C(O)C(=O)O` [Example 14, 4-([(Diethylamino)acetyl]amino)-N-(2,6-dimethylphenyl)benzamide ethanedioate] as the compound, how does the ED50 read?
Answer: 3.6 mg/kg

Question: Which ED50 does the source give for `Cc1cccc(C)c1NC(=O)c1ccc(NC(=O)CN2CCCCC2)cc1` [Example 15, N-[4-([(2,6-Dimethylphenyl)amino]carbonyl)phenyl]-1-piperidineacetamide] here?
Answer: 9.5 mg/kg

Question: Which ED50 does the source give for `Cc1cccc(C)c1NC(=O)c1ccc(NC(=O)CN2CCCC2)cc1` [Example 16, N-[4-([(2,6-Dimethylphenyl)amino]carbonyl)phenyl]-1-pyrrolidineacetamide] here?
Answer: 3.75 mg/kg

Question: Which ED50 does the source give for `Cc1cccc(C)c1NC(=O)c1ccc(NC(=O)CN2CCN(C)CC2)cc1` [Example 17, N-[4-([(2,6-Dimethylphenyl)amino]carbonyl)phenyl]-4-methyl-1-piperazineacetamide] here?
Answer: > 112 mg/kg

Question: With `Cc1cccc(C)c1NC(=O)c1ccc(NC(=O)CN2CCOCC2)cc1` [Example 18, N-[4-([(2,6-Dimethylphenyl)amino]carbonyl)phenyl]-4-morpholineacetamide] as the compound, how does the ED50 read?
Answer: 17.5 mg/kg

Question: Which ED50 does the source give for `Cc1cccc(C)c1NC(=O)c1ccc(NC(=O)CCN2CCCC2)cc1` [Example 19, N-[4-([(2,6-Dimethylphenyl)amino]carbonyl)phenyl]-1-pyrrolidinepropanamide] here?
Answer: 26.9 mg/kg

Question: Which ED50 does the source give for `Cc1cccc(C)c1NC(=O)c1ccc(NC(=O)C(C)N2CCCC2)cc1` (stereo not drawn) [Example 20] here?
Answer: 42.5 mg/kg

Question: For `Cc1cccc(C)c1NC(=O)c1ccc(NC(=O)CN2CCCCCC2)cc1` [Example 21, N-[4-([(2,6-Dimethylphenyl)amino]carbonyl)phenyl]hexahydro-1-H-azepine-1-acetamide], which ED50 is on record?
Answer: 5.1 mg/kg

Question: With `CCNCC(=O)Nc1ccc(C(=O)NC(C)c2ccccc2)cc1.Cl` (stereo not drawn) [Example 22, 4-([(Ethylamino)acetyl]amino)-N-(1-phenylethyl)benzamide hydrochloride] as the compound, how does the ED50 read?
Answer: 28 mg/kg

Question: With `CCNCC(=O)Nc1ccc(C(=O)Nc2c(C)cccc2C)cc1` [Example 23, N-(2,6-Dimethylphenyl)-4-([(ethylamino)acetyl]amino)benzamide] as the compound, how does the ED50 read?
Answer: 3.2 mg/kg

Same assay, conditions: oral dose (gavage), mice; 0.1 second, 50 milliampere electroshock through corneal electrodes; at time of optimal response

Question: With `CC(=O)Nc1ccc(C(=O)N[C@H](C)c2ccccc2)cc1` [Example 5] as the compound, how does the “Electroshock ED50 (mg/kg)” value read?
Answer: ca. 100 mg/kg

Same assay, conditions: time between oral dosing and electroshock

Question: For `CC(=O)Nc1ccc(C(=O)N[C@H](C)c2ccccc2)cc1` [Example 5], which “Time After dosing (minutes) providing an optimal response” value is on record?
Answer: 60 min
